Experimental findings from patent US20220324835A1 (Nurix Therapeutics, Inc., priority 2018, published 2022) are described below.

Structures are written as SMILES.

Assay [1] has as its system T-cell. Nature of the assay: IL-2 secretion from T-cells stimulated with anti-CD3 antibody alone (Biological Example 2). In kind it is cell-based, human. As to conditions: Homo sapiens, T-cell; 1 μM Cbl-b inhibitor; fold change over baseline (anti-CD3/anti-CD28 stimulated T-cells without inhibitor); read-out: IL-2 secretion Anti-CD3 stimulation.
For assay [2], the system named is T-cell. The experiment in a line: IL-2 secretion from T-cells co-stimulated with anti-CD3 and anti-CD28 antibody (Biological Example 2). The note with it: Homo sapiens, T-cell, fold change over baseline (anti-CD3/anti-CD28 stimulated T-cells without inhibitor), read-out: IL-2 secretion Anti-CD3/Anti-CD28 stimulation; for fold induction at 0.3 µM: 0.3 μM Cbl-b inhibitor; for fold induction at 1 µM: 1 μM Cbl-b inhibitor. The class given is cell-based, human. The essentials:
(§1)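 No assay protocol given; T-cells stimulated with anti-CD3 alone or anti-CD3 plus anti-CD28, with or without Cbl-b inhibitor. Activation read as IL-2 secretion or CD25 surface staining, expressed as fold over baseline from uninhibited cells […].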

In assay [3] the target is T1, Cbl-b (Homo sapiens, UniProt Q13191). Nature of the assay: Cbl-b activity assay (Cbl-b inhibition assay), TR-FRET of Cbl-b interaction with UbcH5B-Ub. The class given is biochemical. The note with it: assay buffer with 100 mM NaCl, 60 nM Src kinase; read-out: Cbl-b activity IC50. The essentials: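 TR-FRET readout of Cbl-b binding to Bodipy-fluorescein N-terminally labeled Ub conjugated to UbcH5B C85K, measured with compound present. After compound incubation, 60 nM Src kinase with 1 mM ATP and 5 mM MgCl2 (final) was added for 1.5 h, then a further 1 h incubation; asterisked values used 50 mM NaCl buffer and 30 nM Src.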
T1 sequence (Q13191 36-427): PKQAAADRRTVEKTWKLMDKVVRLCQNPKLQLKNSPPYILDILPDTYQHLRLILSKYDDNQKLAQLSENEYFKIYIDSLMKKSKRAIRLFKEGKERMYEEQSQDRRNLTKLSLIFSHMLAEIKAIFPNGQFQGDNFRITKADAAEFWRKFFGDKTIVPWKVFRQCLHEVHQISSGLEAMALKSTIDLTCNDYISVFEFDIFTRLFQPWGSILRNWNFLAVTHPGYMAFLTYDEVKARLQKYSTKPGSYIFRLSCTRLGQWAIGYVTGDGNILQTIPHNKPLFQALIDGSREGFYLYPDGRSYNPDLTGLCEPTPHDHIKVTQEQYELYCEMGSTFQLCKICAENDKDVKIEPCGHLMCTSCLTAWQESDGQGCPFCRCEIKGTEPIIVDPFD

The subject of assay [4] is T-cell. Nature of the assay: CD25 cell surface staining on T-cells stimulated with anti-CD3 antibody alone (Biological Example 2). The class given is cell-based, human. As to conditions: Homo sapiens, T-cell; 1 μM Cbl-b inhibitor; fold change over baseline (anti-CD3/anti-CD28 stimulated T-cells without inhibitor); read-out: CD25 staining Anti-CD3 stimulation.
Assay [5] has as its target T1, Cbl-b. The experiment in a line: Cbl-b inhibition assay (Cbl-b activity assay, FRET, Biological Example 1; 100 mM NaCl, 60 nM Src kinase). In kind it is biochemical. As to conditions: upper bound stated in text lists; read-out: IC50 values in the Cbl-b inhibition assay of Biological Example 1. The method, boiled down: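 FRET read-out: loss of signal marks inhibition. Mix = biotin-Avi-Cbl-b (N-term), Src kinase, UbcH5B-Ub(Bodipy-FL, irreversible conjugate), streptavidin-Tb, assay buffer.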

The subject of assay [6] is T-cell. Nature of the assay: CD25 cell surface staining on T-cells co-stimulated with anti-CD3 and anti-CD28 antibody (Biological Example 2). In kind it is cell-based, human. As to conditions: Homo sapiens, T-cell, fold change over baseline (anti-CD3/anti-CD28 stimulated T-cells without inhibitor), read-out: CD25 staining Anti-CD3/Anti-CD28 stimulation; for fold induction at 0.3 µM: 0.3 μM Cbl-b inhibitor; for fold induction at 1 µM: 1 μM Cbl-b inhibitor. The essentials:
as §1

Take `Cn1cnnc1CC1(c2cccc(N3Cc4c(cc(CN5CCC(C(F)F)CC5)cc4C(F)(F)F)C3=O)c2)COC1` [Example 643, 6-((4-(difluoromethyl)piperidin-1-yl)methyl)-2-(3-(3-((4-methyl-4H-1,2,4-triazol-3-yl)methyl)oxetan-3-yl)phenyl)-4-(trifluoromethyl)isoindolin-1-one]: the fold induction at 1 µM in the assay with T-cell [1] was 0.151 to 0.2; with T-cell [2], greater than 7.5; with T-cell [4] it was greater than 1; in the assay on T-cell [6], 1.31 to 1.5. The fold induction at 0.3 µM lay in the range of 5 to 7.5 in the assay with T-cell [2] and 1.31 to 1.5 in the assay with T-cell [6]. Besides, the IC50 (commonly the concentration that inhibits the measured activity by half) at Cbl-b [3] was less than 100 nM; at Cbl-b [5], no more than 100 nM.

As for `Cn1cnnc1CC1(c2cccc(N3Cc4c(cc(CN5CCC6CC6C5)cc4C(F)(F)F)C3=O)c2)COC1` (stereo not drawn) [Example 646, 6-((3-azabicyclo[4.1.0]heptan-3-yl)methyl)-2-(3-(3-((4-methyl-4H-1,2,4-triazol-3-yl)methyl)oxetan-3-yl)phenyl)-4-(trifluoromethyl)isoindolin-1-one], the fold induction at 1 µM in the assay on T-cell [1] is greater than 0.201; in the assay with T-cell [2], greater than 7.5; in the assay with T-cell [4] it was greater than 1; with T-cell [6], 1.31 to 1.5. The figures for the fold induction at 0.3 µM in the assay with T-cell [2] and in the assay on T-cell [6] were greater than 7.5 and 1.31 to 1.5, respectively. The IC50 on Cbl-b [3] is less than 100 nM; at Cbl-b [5], no more than 100 nM.

As for `Cc1nc2c(o1)CCN(Cc1cc3c(c(C(F)(F)F)c1)CN(c1cccc(C4(Cc5nncn5C)COC4)c1)C3=O)C2` [Example 649, 2-(3-(3-((4-methyl-4H-1,2,4-triazol-3-yl)methyl)oxetan-3-yl)phenyl)-6-((2-methyl-6,7-dihydrooxazolo[4,5-c]pyridin-5(4H)-yl)methyl)-4-(trifluoromethyl)isoindolin-1-one], the fold induction at 1 µM is greater than 0.201 with T-cell [1], greater than 7.5 with T-cell [2], greater than 1 in the assay on T-cell [4] and 1.31 to 1.5 in the assay on T-cell [6]. The fold induction at 0.3 µM lay in the range of 5 to 7.5 in the assay on T-cell [2] and 1.01 to 1.3 in the assay with T-cell [6]. In addition, the IC50 was less than 100 nM at Cbl-b [3] and no more than 100 nM at Cbl-b [5].

For `Cn1cnnc1CC1(c2cccc(N3Cc4c(cc(CN5CCc6ccccc6C5)cc4C(F)(F)F)C3=O)c2)COC1` [Example 650, 6-((3,4-dihydroisoquinolin-2(1H)-yl)methyl)-2-(3-(3-((4-methyl-4H-1,2,4-triazol-3-yl)methyl)oxetan-3-yl)phenyl)-4-(trifluoromethyl)isoindolin-1-one], the fold induction at 1 µM in the assay on T-cell [1] is greater than 0.201; in the assay on T-cell [2], greater than 7.5; in the assay on T-cell [4], greater than 1; with T-cell [6], 1.31 to 1.5. The fold induction at 0.3 µM in the assay on T-cell [2] lay in the range of 5 to 7.5; in the assay on T-cell [6] it was 1.01 to 1.3. The IC50 is less than 100 nM at Cbl-b [3] and no more than 100 nM at Cbl-b [5].

Consider `Cn1cnnc1CC1(c2cccc(N3Cc4c(cc(CN5CCCc6c5cnn6C)cc4C(F)(F)F)C3=O)c2)COC1` [Example 651], for which the fold induction at 1 µM in the assay on T-cell [1] is greater than 0.201; in the assay with T-cell [2], greater than 7.5; in the assay with T-cell [4], greater than 1; with T-cell [6], 1.01 to 1.3. Moreover, the fold induction at 0.3 µM with T-cell [2] was 5 to 7.5; in the assay with T-cell [6], 1.01 to 1.3. The IC50 on Cbl-b [3] is less than 100 nM; on Cbl-b [5], no more than 100 nM.

Regarding `Cn1cnnc1CC1(c2cccc(N3Cc4c(cc(CN5Cc6cccc(F)c6C5)cc4C(F)(F)F)C3=O)c2)COC1` [Example 653, 6-((4-fluoroisoindolin-2-yl)methyl)-2-(3-(3-((4-methyl-4H-1,2,4-triazol-3-yl)methyl)oxetan-3-yl)phenyl)-4-(trifluoromethyl)isoindolin-1-one], the fold induction at 1 µM in the assay on T-cell [1] is greater than 0.201; in the assay with T-cell [2] it was greater than 7.5; in the assay on T-cell [4], greater than 1; in the assay with T-cell [6], 1.31 to 1.5. Moreover, the fold induction at 0.3 µM lay in the range of 2.51 to 5 with T-cell [2] and 1.31 to 1.5 in the assay with T-cell [6]. Also, the results for the IC50 at Cbl-b [3] and at Cbl-b [5] were less than 100 nM and no more than 100 nM, respectively.

For `Cn1cnnc1CC1(c2cccc(N3Cc4c(cc(CN5Cc6ccccc6C5)cc4C(F)(F)F)C3=O)c2)COC1` [Example 654, 6-(isoindolin-2-ylmethyl)-2-(3-(3-((4-methyl-4H-1,2,4-triazol-3-yl)methyl)oxetan-3-yl)phenyl)-4-(trifluoromethyl)isoindolin-1-one], the fold induction at 1 µM was greater than 0.201 with T-cell [1], greater than 7.5 in the assay on T-cell [2], greater than 1 in the assay with T-cell [4] and 1.31 to 1.5 in the assay with T-cell [6]. The fold induction at 0.3 µM with T-cell [2] fell in the range of 5 to 7.5; in the assay with T-cell [6], 1.31 to 1.5. Further, the results for the IC50 on Cbl-b [3] and at Cbl-b [5] were less than 100 nM and no more than 100 nM, respectively.

Consider `Cn1cnnc1CC1(c2cccc(N3Cc4c(cc(CN5Cc6ccc(F)cc6C5)cc4C(F)(F)F)C3=O)c2)COC1` [Example 655, 6-((5-fluoroisoindolin-2-yl)methyl)-2-(3-(3-((4-methyl-4H-1,2,4-triazol-3-yl)methyl)oxetan-3-yl)phenyl)-4-(trifluoromethyl)isoindolin-1-one], for which the fold induction at 1 µM in the assay on T-cell [1] was greater than 0.201; in the assay on T-cell [2], greater than 7.5; with T-cell [4], greater than 1; in the assay with T-cell [6], 1.31 to 1.5. Also, the fold induction at 0.3 µM in the assay with T-cell [2] was in the range of 5 to 7.5; in the assay on T-cell [6], 1.31 to 1.5. Moreover, the values for the IC50 on Cbl-b [3] and on Cbl-b [5] were less than 100 nM and no more than 100 nM, respectively.

Regarding `COc1ccc2c(c1)CN(Cc1cc3c(c(C(F)(F)F)c1)CN(c1cccc(C4(Cc5nncn5C)COC4)c1)C3=O)C2` [Example 656, 6-((5-methoxyisoindolin-2-yl)methyl)-2-(3-(3-((4-methyl-4H-1,2,4-triazol-3-yl)methyl)oxetan-3-yl)phenyl)-4-(trifluoromethyl)isoindolin-1-one], the fold induction at 1 µM in the assay on T-cell [1] is greater than 0.201; with T-cell [2], greater than 7.5; with T-cell [4] it was greater than 1; in the assay with T-cell [6], 1.31 to 1.5. Further, the fold induction at 0.3 µM in the assay on T-cell [2] is greater than 7.5; in the assay with T-cell [6], 1.31 to 1.5. Besides, the IC50 was less than 100 nM on Cbl-b [3] and no more than 100 nM at Cbl-b [5].

As for `Cn1cnnc1CC1(c2cccc(N3Cc4c(cc(CN5Cc6cccnc6C5)cc4C(F)(F)F)C3=O)c2)COC1` [Example 660, 6-((5,7-dihydro-6H-pyrrolo[3,4-b]pyridin-6-yl)methyl)-2-(3-(3-((4-methyl-4H-1,2,4-triazol-3-yl)methyl)oxetan-3-yl)phenyl)-4-(trifluoromethyl)isoindolin-1-one], the fold induction at 1 µM with T-cell [1] is greater than 0.201; with T-cell [2], greater than 7.5; with T-cell [4], greater than 1; with T-cell [6], 1.31 to 1.5. The values for the fold induction at 0.3 µM in the assay on T-cell [2] and in the assay on T-cell [6] were 2.51 to 5 and 1.31 to 1.5, respectively. Also, the figures for the IC50 at Cbl-b [3] and on Cbl-b [5] were less than 100 nM and no more than 100 nM, respectively.

`Cn1cnnc1CC1(c2cccc(N3Cc4c(cc(CN5CC[C@H](c6ccccc6)C5)cc4C(F)(F)F)C3=O)c2)COC1` [Example 662a, (R)-2-(3-(3-((4-methyl-4H-1,2,4-triazol-3-yl)methyl)oxetan-3-yl)phenyl)-6-((3-phenylpyrrolidin-1-yl)methyl)-4-(trifluoromethyl)isoindolin-1-one]: the fold induction at 1 µM with T-cell [1] was greater than 0.201; in the assay on T-cell [2], greater than 7.5; in the assay on T-cell [4], 0.801 to 1; in the assay on T-cell [6], 1.01 to 1.3. The fold induction at 0.3 µM in the assay with T-cell [2] is 5 to 7.5; in the assay with T-cell [6], 1.01 to 1.3. The results for the IC50 at Cbl-b [3] and at Cbl-b [5] were less than 100 nM and no more than 100 nM, respectively.

For `C[C@H]1CN(Cc2cc3c(c(C(F)(F)F)c2)CN(c2cccc(C4(Cc5nncn5C)COC4)c2)C3=O)CCO1` [Example 663a, (S)-2-(3-(3-((4-methyl-4H-1,2,4-triazol-3-yl)methyl)oxetan-3-yl)phenyl)-6-((2-methylmorpholino)methyl)-4-(trifluoromethyl)isoindolin-1-one], the fold induction at 1 µM in the assay with T-cell [1] was greater than 0.201; in the assay with T-cell [2], greater than 7.5; in the assay on T-cell [4], greater than 1; in the assay on T-cell [6], 1.31 to 1.5. Moreover, the fold induction at 0.3 µM in the assay with T-cell [2] lay within 5 to 7.5; in the assay on T-cell [6] it was 1.31 to 1.5. Further, the values for the IC50 at Cbl-b [3] and at Cbl-b [5] were less than 100 nM and no more than 100 nM, respectively.
